Data published in patent US20120252721A1 (priority 2011, published 2012).
pEC50: −log10 of the molar value.

What was measured:
[1] = test system: HCV genotype 1b Con1 strain subgenomic luciferase replicon (Zluc); assay: Luciferase replicon assay, genotype 1b; assay type: cell-based; details: Hepatitis C virus
Outline: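 Replicon-bearing Huh-7 cells (1×10^4 H1a-luc or 7.5×10^3 Zluc per well) dosed 3 h after plating with ten 5-fold compound dilutions, 72 h at 37 °C/5% CO2. Luciferase measured by ONE-glo luminescence; EC50 from dose-response fits, replicon-free Huh-7 as negative control.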

[2] = test system: ZS11-luc L31F (HCV genotype 1b replicon); assay: Luciferase replicon transient transfection assay, ZS11-luc L31F; assay type: cell-based, hepatitis C virus; details: for pEC50: Hepatitis C virus, 96 h, Huh7.5 cells, 4 days
Procedure: (§1) The luciferase replicon transient transfection assay measures the ability of a test compound to inhibit the replication of a transiently-transfected HCV luciferase-bearing wild-type or mutant replicon in cured human hepatoma cells (Huh7.5). The inhibition of HCV replication was measured by quantification of luciferase protein expression. This assay has been validated using a panel of genotype 1a and 1b replicons bearing mutations known to be associated with resistance to BMS-790052. Briefly, subconfluent Huh7.5 cells were electroporated with 10 μg of wild-type or mutant luciferase-bearing HCV replicon RNA. The cells were then seeded in 96-well opaque white plates at 3×10^4 cells/well in 150 μL/well and incubated for 4 hrs at 37° C./5% CO2. Ten 1:5 serial dilutions of each test compound were made in media (DMEM containing glucose, L-glutamine and sodium pyruvate, 10% fetal bovine serum, 100 IU/mL penicillin, 100 μg/mL streptomycin, 2 mM GlutaMAX, and 1×MEM non-essential amino acids (Mediatech, Inc. and Invitrogen Corp.)) at concentrations that were 4× higher than the final concentrations to be tested and 50 μL/well was added to the transfected cells. Untreated, mock-transfected cells served as a negative control of luciferase expression. The plates were incubated at 37° C./5% CO2 for 4 days whereupon the media was removed and 50 μL of ONE-glo luciferase substrate (Promega) was added to each well. The plates were agitated on a rotating platform at room temperature for 3 min and read in a Victor^3V microplate reader (Perkin-Elmer) using a 700 nm cut-off filter with a 1 sec read time. EC50 values were calculated from dose response curves from the resulting best-fit equations determined by Microsoft Excel and XLfit 4.1 software.

[3] = test system: ZS11-luc Y93H (HCV genotype 1b replicon); assay: Luciferase replicon transient transfection assay, ZS11-luc Y93H; assay type: cell-based, hepatitis C virus; details: for pEC50: Hepatitis C virus, 96 h, Huh7.5 cells, 4 days
Procedure: as §1

[4] = test system: 1a-luc Y93C (HCV genotype 1a replicon); assay: Luciferase replicon transient transfection assay, 1a-luc Y93C; assay type: cell-based, hepatitis C virus; details: for pEC50: Hepatitis C virus, 96 h, Huh7.5 cells, 4 days
Procedure: as §1

[5] = test system: 1a-luc WT (HCV genotype 1a replicon); assay: Luciferase replicon transient transfection assay, 1a-luc WT; assay type: cell-based; details: Hepatitis C virus, 96 h, Huh7.5 cells, 4 days
Procedure: as §1

[6] = test system: 1a-luc Y93H (HCV genotype 1a replicon); assay: Luciferase replicon transient transfection assay, 1a-luc Y93H; assay type: cell-based, hepatitis C virus; details: for pEC50: Hepatitis C virus, 96 h, Huh7.5 cells, 4 days
Procedure: as §1

[7] = test system: 1a-luc Q30H (HCV genotype 1a replicon); assay: Luciferase replicon transient transfection assay, 1a-luc Q30H; assay type: cell-based, hepatitis C virus; details: for pEC50: Hepatitis C virus, 96 h, Huh7.5 cells, 4 days
Procedure: as §1

[8] = test system: ZS11-luc L31V (HCV genotype 1b replicon); assay: Luciferase replicon transient transfection assay, ZS11-luc L31V; assay type: cell-based, hepatitis C virus; details: for pEC50: Hepatitis C virus, 96 h, Huh7.5 cells, 4 days
Procedure: as §1

[9] = test system: ZS11-luc Y93C (HCV genotype 1b replicon); assay: Luciferase replicon transient transfection assay, ZS11-luc Y93C; assay type: cell-based, hepatitis C virus; details: for pEC50: Hepatitis C virus, 96 h, Huh7.5 cells, 4 days
Procedure: as §1

[10] = test system: ZS11-luc WT (HCV genotype 1b replicon); assay: Luciferase replicon transient transfection assay, ZS11-luc WT; assay type: cell-based, hepatitis C virus; details: for pEC50: genotype 1b, ZS11-luc WT, Huh7.5 cells, 4 days; for Ratio: ZS11-luc (Table 1I)
Procedure: as §1

[11] = test system: 1a-luc Q30E (HCV genotype 1a replicon); assay: Luciferase replicon transient transfection assay, 1a-luc Q30E; assay type: cell-based, hepatitis C virus; details: for pEC50: Hepatitis C virus, 96 h, Huh7.5 cells, 4 days
Procedure: as §1

H1a-luc or Zluc cells = assay: in vitro; assay type: cell-based, human; details: Table 1B, cellular viability
Outline: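 Cytotoxicity counter-screen in which the H1a-luc or Zluc cells were compound-treated and viability was read with the CellTiter 96 AQueous One (MTS) reagent by absorbance at 490 nm. CC50 values came from curve fitting.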

[12] = test system: 1a-luc L31V (HCV genotype 1a replicon); assay: Luciferase replicon transient transfection assay, 1a-luc L31V; assay type: cell-based, hepatitis C virus; details: for pEC50: Hepatitis C virus, 96 h, Huh7.5 cells, 4 days
Procedure: as §1

[13] = test system: ZS11-luc L31M (HCV genotype 1b replicon); assay: Luciferase replicon transient transfection assay, ZS11-luc L31M; assay type: cell-based, hepatitis C virus; details: for pEC50: Hepatitis C virus, 96 h, Huh7.5 cells, 4 days
Procedure: as §1

[14] = Hepatitis C virus, Huh7.5, 96 h

| SMILES | pEC50 [1] | Ratio [2] | pEC50 [2] | Ratio [3] | pEC50 [3] | Ratio [4] | pEC50 [4] | pEC50 [5] | Ratio [6] | pEC50 [6] | pEC50 [7] | Ratio [8] | pEC50 [8] | Ratio [9] | pEC50 [9] | Ratio [11] | pEC50 [11] | CC50 (H1a-luc or Zluc cells) [nM] | Ratio [12] | pEC50 [12] | other results |
| --- | --- | --- | --- | --- | --- | --- | --- | --- | --- | --- | --- | --- | --- | --- | --- | --- | --- | --- | --- | --- | --- |
| COC(=O)N[C@H](C(=O)N1CCC[C@H]1c1ncc(-c2ccc(-c3csc4c(-c5cnc([C@@H]6CCCN6C(=O)[C@@H](NC(=O)OC)C(C)C)[nH]5)csc34)cc2)[nH]1)C(C)C [Compound A15, [(S)-1-((S)-2-{4-[4-(6-{2-[(S)-1-((S)-2-methoxycarbonylamino-3-methyl-butyryl)-pyrrolidin-2-yl]-3H-imidazol-4-yl}-thieno[3,2-b]thiophen-3-yl)-phenyl]-1H-imidazol-2-yl}-pyrrolidine-1-carbonyl)-2-methyl-propyl]-carbamic acid methyl ester] | > 10.00 |  |  |  |  |  |  |  |  |  |  |  |  |  |  |  |  |  |  |  |  |
| COC(=O)N[C@H](C(=O)N1CCC[C@H]1c1ncc(-c2ccc(-c3csc4c(-c5cnc([C@@H]6CCCN6C(=O)[C@H](NC(=O)OC(C)(C)C)c6ccccc6)[nH]5)csc34)cc2)[nH]1)C(C)C [Compound A111, [(S)-1-((S)-2-{4-[4-(6-{(S)-2-[1-((R)-2-tert-butoxycarbonylamino-2-phenyl-acetyl)-pyrrolidin-2-yl]-3H-imidazol-4-yl}-thieno[3,2-b]thiophen-3-yl)-phenyl]-1H-imidazol-2-yl}-pyrrolidine-1-carbonyl)-2-methyl-propyl]-carbamic acid methyl ester] | > 10.00 | 8 | 11.00 | 48 | 10.10 | 146 | 8.22 | 10.40 | >4859 | < 6.70 | 8.70 | 51 | 10.05 | 4 | 11.22 | 957 | 7.33 | > 75000 | 768 | 7.44 | pEC50 [10, 14]: 11.70; Ratio [13]: 7; pEC50 [13]: 11.00 |
| COC(=O)N[C@H](C(=O)N1CCC[C@H]1c1nc2cc(-c3csc4c(-c5ccc(-c6cnc([C@@H]7CCCN7C(=O)[C@H](NC(=O)OC)c7ccccc7)[nH]6)cc5)csc34)ccc2[nH]1)C(C)C [Compound A169, [(S)-1-((S)-2-{6-[6-(4-{(S)-2-[1-((R)-2-methoxycarbonylamino-2-phenyl-acetyl)-pyrrolidin-2-yl]-3H-imidazol-4-yl}-phenyl)-thieno[3,2-b]thiophen-3-yl]-1H-benzoimidazol-2-yl}-pyrrolidine-1-carbonyl)-2-methyl-propyl]-carbamic acid methyl ester] | > 10.00 | 4 | 11.00 | 82 | 9.70 | 40 | 10.10 | 11.70 | 4428 | 8.05 | 10.30 | 14 | 10.52 | 3 | 11.22 | 422 | 9.05 | > 75000 | 425 | 9.05 | Ratio [7]: 24; pEC50 [10, 14]: 11.70; Ratio [10]: 1; pEC50 [10]: 11.77; Ratio [13]: 4; pEC50 [13]: 11.05 |
| COC(=O)N[C@H](C(=O)N1CCC[C@H]1c1ncc(-c2ccc(-c3csc4c(-c5ccc6[nH]c([C@@H]7CCCN7C(=O)[C@H](NC(=O)OC)c7ccccc7)nc6c5)csc34)cc2)[nH]1)C(C)C [Compound A172, [(S)-1-((S)-2-{5-[4-(6-{(S)-2-[1-((R)-2-Methoxycarbonylamino-2-phenyl-acetyl)-pyrrolidin-2-yl]-3H-benzoimidazol-5-yl}-thieno[3,2-b]thiophen-3-yl)-phenyl]-1H-imidazol-2-yl}-pyrrolidine-1-carbonyl)-2-methyl-propyl]-carbamic acid methyl ester] | > 10.00 | 4 | 10.70 | 56 | 9.52 | 96 | 9.40 | 11.40 | 5427 | 7.68 | 10.10 | 9 | 10.40 | 2 | 11.00 | 423 | 8.70 | > 75000 | 695 | 8.52 | Ratio [7]: 21; Ratio [10]: 1; Ratio [13]: 3; pEC50 [13]: 11.00 |
